From ChEMBL document CHEMBL2157994, “Synthesis and in vitro and in vivo anticancer activity of novel 3-methyl-5H-isoxazolo[5',4':5,6]pyrido[2,3-b]indoles” (Bioorg Med Chem Lett, 2012)
In brackets after ≈: the same amount, converted by molar mass. Activity calls are given as the source filed them. No cut-off for these calls is given here.

Tests used:
[1] = test system: MCF7; assay: Cytotoxicity against human MCF7 cells after 48 hrs by MTT assay; type: functional, cell-based; conditions: MCF7, 48 h
[2] = test system: NCI-H460; assay: Cytotoxicity against human NCI-H460 cells after 48 hrs by MTT assay; type: functional, cell-based; conditions: NCI-H460, 48 h
[3] = test system: HeLa; assay: Cytotoxicity against human HeLa cells after 48 hrs by MTT assay; type: functional, cell-based
[4] = test system: Mus musculus; assay: Toxicity in Swiss albino mouse xenografted with mouse EAC cells assessed as RBC level at 10 mg/kg/day, ip administered for 9 days measured on day 14 (reference value: 2.36 +/- 0.13 million/mm3); type: organism-based, Ehrlich; design: route intraperitoneal; conditions: in vivo, 216 h
[5] = test system: Mus musculus; assay: Toxicity in Swiss albino mouse xenografted with mouse EAC cells assessed as haemoglobin level at 10 mg/kg/day, ip administered for 9 days measured on day 14 (reference value: 5.54 +/- 0.734 g%); type: organism-based, Ehrlich; design: route intraperitoneal; conditions: in vivo, 216 h
[6] = test system: Mus musculus; assay: Hepatoprotective activity in Swiss albino mouse xenografted with mouse EAC cells assessed as total protein level at 5 mg/kg/day, ip administered for 9 days measured on day 14 (reference value: 7.54 +/- 0.14 mg/dL); type: functional, Ehrlich; conditions: route intraperitoneal
[7] = Antitumor activity against mouse EAC cells xenografted in Swiss albino mouse assessed as non-viable tumor cells at 5 mg/kg/day, ip administered for 9 days measured on day 14 by trypan blue exclusion assay (reference value: 1.02 +/- 0.09 /ml); type: functional, Ehrlich; conditions: route intraperitoneal
[8] = Antitumor activity against mouse EAC cells xenografted in Swiss albino mouse assessed as viable tumor cells at 10 mg/kg/day, ip administered for 9 days measured on day 14 by trypan blue exclusion assay (reference value: 7 +/- 0.43 /ml); type: functional, Ehrlich; conditions: route intraperitoneal
[9] = Antitumor activity against mouse EAC cells xenografted in Swiss albino mouse assessed as viable tumor cells at 5 mg/kg/day, ip administered for 9 days measured on day 14 by trypan blue exclusion assay (reference value: 7 +/- 0.43 /ml); type: functional, Ehrlich; conditions: route intraperitoneal
[10] = Antitumor activity against mouse EAC cells xenografted in Swiss albino mouse assessed as packed cell volume at 5 mg/kg/day, ip administered for 9 days measured on day 14 (reference value: 2.2 +/- 0.26 mL); type: functional, Ehrlich; conditions: route intraperitoneal
[11] = test system: Mus musculus; assay: Toxicity in Swiss albino mouse xenografted with mouse EAC cells assessed as haemoglobin level at 5 mg/kg/day, ip administered for 9 days measured on day 14 (reference value: 5.54 +/- 0.734 g%); type: organism-based, Ehrlich; design: route intraperitoneal; conditions: in vivo, 216 h
[12] = test system: Mus musculus; assay: Hepatoprotective activity in Swiss albino mouse xenografted with mouse EAC cells assessed as SGOT level at 10 mg/kg/day, ip administered for 9 days measured on day 14 (reference value: 112 +/- 1.42 IU/L); type: functional, Ehrlich; conditions: route intraperitoneal
[13] = test system: Mus musculus; assay: Toxicity in Swiss albino mouse xenografted with mouse EAC cells assessed as WBC level at 10 mg/kg/day, ip administered for 9 days measured on day 14 (reference value: 20.66 +/- 0.81 10^3/mm3); type: organism-based, Ehrlich; design: route intraperitoneal; conditions: in vivo, 216 h
[14] = Antitumor activity against mouse EAC cells xenografted in Swiss albino mouse assessed as tumor volume at 10 mg/kg/day, ip administered for 9 days measured on day 14 (reference value: 3.53 +/- 0.85 mL); type: functional, Ehrlich; conditions: route intraperitoneal
[15] = Antitumor activity against mouse EAC cells xenografted in Swiss albino mouse assessed as packed cell volume at 10 mg/kg/day, ip administered for 9 days measured on day 14 (reference value: 2.2 +/- 0.26 mL); type: functional, Ehrlich; conditions: route intraperitoneal
[16] = Antitumor activity against mouse EAC cells xenografted in Swiss albino mouse assessed as increase in life span at 5 mg/kg/day, ip administered for 9 days relative to vehicle-treated control; type: functional, Ehrlich; conditions: route intraperitoneal
[17] = Antitumor activity against mouse EAC cells xenografted in Swiss albino mouse assessed as non-viable tumor cells at 10 mg/kg/day, ip administered for 9 days measured on day 14 by trypan blue exclusion assay (reference value: 1.02 +/- 0.09 /ml); type: functional, Ehrlich; conditions: route intraperitoneal
[18] = Antitumor activity against mouse EAC cells xenografted in Swiss albino mouse assessed as tumor volume at 5 mg/kg/day, ip administered for 9 days measured on day 14 (reference value: 3.53 +/- 0.85 mL); type: functional, Ehrlich; conditions: route intraperitoneal
[19] = test system: Mus musculus; assay: Toxicity in Swiss albino mouse xenografted with mouse EAC cells assessed as body weight at 10 mg/kg/day, ip administered for 9 days measured on day 14 (reference value: 13.57 +/- 0.8 g); type: organism-based, Ehrlich; design: route intraperitoneal; conditions: in vivo, 216 h
[20] = test system: Ehrlich; assay: Anticancer activity against mouse EAC cells xenografted in Swiss albino mouse assessed as decrease in ascitic fluid volume relative to tumor control; type: functional
[21] = test system: Mus musculus; assay: Toxicity in Swiss albino mouse xenografted with mouse EAC cells assessed as RBC level at 5 mg/kg/day, ip administered for 9 days measured on day 14 (reference value: 2.36 +/- 0.13 million/mm3); type: organism-based, Ehrlich; design: route intraperitoneal; conditions: in vivo, 216 h
[22] = test system: Mus musculus; assay: Toxicity in Swiss albino mouse xenografted with mouse EAC cells assessed as WBC level at 5 mg/kg/day, ip administered for 9 days measured on day 14 (reference value: 20.66 +/- 0.81 10^3/mm3); type: organism-based, Ehrlich; design: route intraperitoneal; conditions: in vivo, 216 h
[23] = test system: Mus musculus; assay: Hepatoprotective activity in Swiss albino mouse xenografted with mouse EAC cells assessed as SGPT level at 5 mg/kg/day, ip administered for 9 days measured on day 14 (reference value: 57.84 +/- 0.3 IU/L); type: functional, Ehrlich; conditions: route intraperitoneal
[24] = test system: Mus musculus; assay: Hepatoprotective activity in Swiss albino mouse xenografted with mouse EAC cells assessed as SGPT level at 10 mg/kg/day, ip administered for 9 days measured on day 14 (reference value: 57.84 +/- 0.3 IU/L); type: functional, Ehrlich; conditions: route intraperitoneal
[25] = test system: Mus musculus; assay: Hepatoprotective activity in Swiss albino mouse xenografted with mouse EAC cells assessed as total protein level at 10 mg/kg/day, ip administered for 9 days measured on day 14 (reference value: 7.54 +/- 0.14 mg/dL); type: functional, Ehrlich; conditions: route intraperitoneal
[26] = test system: Mus musculus; assay: Hepatoprotective activity in Swiss albino mouse xenografted with mouse EAC cells assessed as SGOT level at 5 mg/kg/day, ip administered for 9 days measured on day 14 (reference value: 112 +/- 1.42 IU/L); type: functional, Ehrlich; conditions: route intraperitoneal
[27] = test system: Mus musculus; assay: Toxicity in Swiss albino mouse xenografted with mouse EAC cells assessed as body weight at 5 mg/kg/day, ip administered for 9 days measured on day 14 (reference value: 13.57 +/- 0.8 g); type: organism-based, Ehrlich; design: route intraperitoneal; conditions: in vivo, 216 h
[28] = Antitumor activity against mouse EAC cells xenografted in Swiss albino mouse assessed as increase in life span at 10 mg/kg/day, ip administered for 9 days relative to vehicle-treated control; type: functional, Ehrlich; conditions: route intraperitoneal

Work on `Cc1noc2cc3c(nc12)[nH]c1ccc(Cl)cc13` yielded an IC50 [1] of 49.1 µg/mL (≈ 190 µM), an IC50 [2] of 36.4 µg/mL (≈ 141 µM) and an IC50 [3] of 49.3 µg/mL (≈ 191 µM).

With `Cc1noc2cc3c(nc12)[nH]c1c(Cl)cccc13` the IC50 [1] was 54.5 µg/mL (≈ 212 µM), the IC50 [2] was 52.3 µg/mL (≈ 203 µM) and the IC50 [3] was 55.6 µg/mL (≈ 216 µM).

Work on `Cc1ccc2[nH]c3nc4c(C)noc4cc3c2c1` yielded an Activity [4] of 3.66 million/mm3, an Activity [5] of 7.3 g% and an Activity [6] of 7.18 mg/dL. For the same compound, the Activity [7] was 1.62 ×10⁷ /ml, the IC50 [1] was 18.8 µg/mL (≈ 79.3 µM) and the Activity [8] was 5.2 ×10⁷ /ml. For the same compound, the IC50 [2] was 16.7 µg/mL (≈ 70.3 µM), the Activity [9] was 6.43 ×10⁷ /ml and the Activity [10] was 1.8 mL. The Activity [11] was 6.26 g%, the Activity [12] was 98.6 IU/L and the Activity [13] was 16.58 ×10³ /mm3. It also gave an Activity [14] of 1.63 mL, an Activity [15] of 1.33 mL and an Activity [16] of 11.08%. It also gave an Activity [17] of 2.07 ×10⁷ /ml, an Activity [18] of 2.43 mL and an Activity [19] of 8.36 g. For the same compound, the Activity [20] was “Active”, the Activity [21] was 2.93 million/mm3 and the Activity [22] was 19.19 ×10³ /mm3. It also gave an Activity [23] of 54 IU/L, an Activity [24] of 47.46 IU/L and an Activity [25] of 6.63 mg/dL. For the same compound, the Activity [26] was 106.1 IU/L, the Activity [27] was 11.23 g and the Activity [28] was 44.4%. The IC50 [3] was 19.7 µg/mL (≈ 83.1 µM).

Work on `Cc1noc2cc3c(nc12)[nH]c1ccc(Br)cc13` yielded an IC50 [1] of 60.4 µg/mL (≈ 200 µM), an IC50 [2] of 63.2 µg/mL (≈ 209 µM) and an IC50 [3] of 61.1 µg/mL (≈ 202 µM).

`Cc1noc2cc3c(nc12)[nH]c1ccccc13` gave an IC50 [1] of 53.4 µg/mL (≈ 239 µM), an IC50 [2] of 49.2 µg/mL (≈ 221 µM) and an IC50 [3] of 54.5 µg/mL (≈ 244 µM).

In the case of `Cc1noc2cc3c(nc12)[nH]c1c(C)cccc13`, the Activity [4] is reported as 4.14 million/mm3, the Activity [5] is reported as 8.88 g% and the Activity [6] is reported as 6.43 mg/dL. The Activity [7] was 2.31 ×10⁷ /ml, the IC50 [1] was 22.5 µg/mL (≈ 94.9 µM) and the Activity [8] was 2.97 ×10⁷ /ml. It also gave an IC50 [2] of 20.4 µg/mL (≈ 86.2 µM), an Activity [9] of 4.74 ×10⁷ /ml and an Activity [10] of 1.36 mL. For the same compound, the Activity [11] was 7.09 g%, the Activity [12] was 101.06 IU/L and the Activity [13] was 15.25 ×10³ /mm3. It also gave an Activity [14] of 1.4 mL, an Activity [15] of 0.86 mL and an Activity [16] of 36.36%. It also gave an Activity [17] of 4.2 ×10⁷ /ml, an Activity [18] of 2.13 mL and an Activity [19] of 5.93 g. The Activity [20] was “Active”, the Activity [21] was 3.34 million/mm3 and the Activity [22] was 17.65 ×10³ /mm3. It also gave an Activity [23] of 55.1 IU/L, an Activity [24] of 41.06 IU/L and an Activity [25] of 4.77 mg/dL. It also gave an Activity [26] of 106.3 IU/L, an Activity [27] of 9.76 g and an Activity [28] of 75%. The IC50 [3] was 23.6 µg/mL (≈ 99.6 µM).

For `Cc1noc2cc3c(nc12)[nH]c1ccc(F)cc13`, the IC50 [1] was 51.3 µg/mL (≈ 213 µM), the IC50 [2] was 52.4 µg/mL (≈ 217 µM) and the IC50 [3] was 50.5 µg/mL (≈ 209 µM).

With `COc1ccc2[nH]c3nc4c(C)noc4cc3c2c1` the IC50 [1] was 46.5 µg/mL (≈ 184 µM), the IC50 [2] was 45.2 µg/mL (≈ 178 µM) and the IC50 [3] was 48.3 µg/mL (≈ 191 µM).
